Assay results from patent US9855259B2, “Processes of making and crystalline forms of a MDM2 inhibitor” (AMGEN INC., priority 2013, dated 2018).
Structures can show the parent of a compound that is named as a salt.

Assay: room-temperature solubility in toluene
Assay type: physicochemical
Details: organic solvent or mixture, 1-naphthalene sulfonate counterion

solubility: < 10000 µg/mL
SMILES: C=CC[C@@]1(C)C[C@H](c2cccc(Cl)c2)[C@@H](c2ccc(Cl)cc2)[N+]2=C1OC[C@@H]2C(C)C [oxoiminium salt, (3S,5S,6R,8S)-8-Allyl-6-(3-chlorophenyl)-5-(4-chlorophenyl)-3-isopropyl-8-methyl-2,3,5,6,7,8-hexahydrooxazolo[3,2-a]pyridin-4-ium naphthalene-1-sulfonate]
